Laboratory results published in patent publication US20050107616A1, “Alpha-ketoamide derivatives as cathepsin k inhibitors” (priority 2001, published 2005).

target: T1, human cathepsin K (Homo sapiens, UniProt P43235); experiment: Cathepsin K inhibition assay, fluorogenic substrate Cbz-Phe-Arg-AMC, progress curve method; type: biochemical; settings: Table 1; human recombinant enzyme, pH 5.5, 30° C., 10 μM substrate; read-out: hCat K Ki
T1 construct: The proform of cathepsin K was converted to mature cathepsin K by brief exposure to pH 4; made in house; host or cells: baculovirus; Trichoplusia ni High Five cells (virus raised in Sf-9)
T1 sequence (P43235 115-329): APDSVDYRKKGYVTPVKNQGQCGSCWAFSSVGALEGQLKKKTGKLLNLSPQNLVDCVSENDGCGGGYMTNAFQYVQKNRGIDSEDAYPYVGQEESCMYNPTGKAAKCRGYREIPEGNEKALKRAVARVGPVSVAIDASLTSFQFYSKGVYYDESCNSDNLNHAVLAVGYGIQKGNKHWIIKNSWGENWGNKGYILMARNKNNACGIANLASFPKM
Protocol: All assays for cathepsin K were carried out with human and rat recombinant enzyme. Assays for cathepsins S Et V were also carried out with human recombinant enzyme. Assays for human cathepsins B. H. and L were carried out with enzyme, purchased from Athens Research and Technology, Inc., prepared from human liver tissue. […] A stock substrate solution of Cbz-Phe-Arg-AMC was prepared at a concentration of 50 mM in dimethyl sulfoxide. This substrate was diluted into the assay for a final substrate concentration of 10 μM in the rat cathepsin K, human cathepsin K, and human cathepsin B assays; a final substrate concentration of 5 μM in the human cathepsin L assay; and a final substrate concentration of 2 μM in the human cathepsin V assay.
All assays contained 10% dimethyl sulfoxide. […] All assays were conducted at 30° C. Product fluorescence (excitation at 360 nm; emission at 440 nm, (except cathepsin H which used excitation at 340 nm; emission at 420 nm)) was monitored with a PerSeptive Biosystems Cytofluor II fluorescence plate reader. Product progress curves were generated over 2.3 h monitoring the formation of 7-amino-4-methylcoumarin product (or β-naphthalamide for cathepsin H).
Two liters of Spodoptera frugiperda (Sf-9) cells (ATCC) were grown in Grace's Supplemented medium (Life Technologies) supplemented with 2 g/L glucose, 10% a fetal bovine serum (HyClone) and 0.10% pluronic F-68 (Life Technologies). […] The cells continued to grow for 72 h post-infection, before the virus was harvested by centrifugation at 1400× g for 30 min.
One and one-half liters of Trichoplusia ni (T. ni) High Five (TM) cells [JRH Biosciences, Woodland, Calif. […] Media were separated from cells at a rate of 1 L/min using the Centritech 100 (TM) continuous-flow centrifuge (DuPont) operating at 200× g.
Protein Purification: Media (human and rat) were filtered through a Whatman 3 filter, and then loaded onto a 25 mL Poros HS II (26 mm×47 mm) cation exchange column equilibrated in 25 mM sodium acetate at pH 5.5 (equilibration buffer). The column was washed until the absorbance reached the baseline value, and then the protein was eluted with a linear gradient from 0-2 M sodium chloride in the equilibration buffer. Column fractions were analyzed by SDS-PAGE, N-terminal sequencing, and mass spectrometry. Fractions containing the proform of cathepsin K were pooled and frozen at −80° C. The proform was concentrated in an Amicon Centriprep 10 and fractionated with a Superdex 75 column (26 mm×600 mm, Pharmacia) equilibrated in 400 mM sodium chloride, 25 mM sodium acetate at pH 5.5.
Cathepsin K Activation: The proform of cathepsin K was converted to mature cathepsin K by brief exposure to pH 4 in the presence of 5 mM L-cysteine. Typically, 5 mM L-cysteine was added to 10 mL of approximately 1 mg/mL procathepsin K. One mL of this solution was diluted ten-fold into 450 mM sodium acetate at pH 4.0 containing 5 mM L-cysteine. This solution was reacted at 23° C. for 2 min before neutralization with 2 mL 1.8 M sodium acetate at pH 6.0. The neutralized sample was added to the remaining 9 mL of procathepsin K. The mixture was incubated at 4° C. for 2-3 days. The activated cathepsin K was chromatographed on a Poros HS II column as described above.
Potential inhibitors were evaluated using the progress curve method. Assays were carried out in the presence of variable concentrations of test compound. Reactions were initiated by addition of buffered solutions of inhibitor and substrate to enzyme. Data analysis was conducted according to one of two procedures depending on the appearance of the progress curves in the presence of inhibitors. […] Ki values were calculated from IC50 values using equation 2 assuming a competitive model. [formula]

Ki | Structure (SMILES)
0.01 to 1 nM | CCCC[C@H](NC(=O)O[C@H](Cn1ccc(-c2cccnc2)n1)C(C)(C)C)C(=O)C(=O)Nc1ccn[nH]1 [Example 44, (1S)-2,2-dimethyl-1-{[3-(3-pyridinyl)-1H-pyrazol-1-yl]methyl}propyl (1S)-1-[oxo(1H-pyrazol-5-ylamino)acetyl]pentylcarbamate]
0.01 to 1 nM | CCCC[C@H](NC(=O)O[C@H](Cn1ccc(-c2ccncc2)n1)C(C)(C)C)C(=O)C(=O)Nc1ccn[nH]1 [Example 45, (1S)-2,2-dimethyl-1-{[3-(4-pyridinyl)-1H-pyrazol-1-yl]methyl}propyl(1S)-1-[oxo(1H-pyrazol-5-ylamino)acetyl]pentylcarbamate]
0.01 to 1 nM | CCCC[C@H](NC(=O)O[C@H](COc1ccc(OCc2ccccc2)cc1)C(C)(C)C)C(=O)C(=O)Nc1ccn[nH]1 [Example 47, (1S)-1-{[4-(benzyloxy)phenoxy]methyl}-2,2-dimethylpropyl(1S)-1-[oxo(1H-pyrazol-5-ylamino)acetyl]pentylcarbamate]
0.01 to 1 nM | CCCC[C@H](NC(=O)O[C@H](COc1ccc(C(N)=O)cc1)C(C)(C)C)C(=O)C(=O)Nc1ccn[nH]1 [Example 48, (1S)-1-{[4-(aminocarbonyl)phenoxy]methyl}-2,2-dimethylpropyl(1S)-1-[oxo(1H-pyrazol-5-ylamino)acetyl]pentylcarbamate]
0.01 to 1 nM | CCCC[C@H](NC(=O)O[C@H](COc1ccc(-n2ccnc2)cc1)C(C)(C)C)C(=O)C(=O)Nc1ccn[nH]1 [Example 49, (1S)-1-{[4-(1H-imidazol-1-yl)phenoxy]methyl}-2,2-dimethylpropyl(1S)-1-[oxo(1H-pyrazol-5-ylamino)acetyl]pentylcarbamate]

Further lines, the compound ahead of its results:

Structure (SMILES) | Ki
CCCC[C@H](NC(=O)O[C@@H](c1cccc(-c2ccccc2)c1)C(C)(C)C)C(=O)C(=O)Nc1ccn[nH]1 [Example 41, (1R)-1-[1,1′-biphenyl]-3-yl-2,2-dimethylpropyl(1S)-1-[oxo(1H-pyrazol-5-ylamino)acetyl]pentylcarbamate] | 100 to 10000 nM
CCCC[C@H](NC(=O)O[C@H](c1cccc(-c2ccccc2)c1)C(C)(C)C)C(=O)C(=O)Nc1ccn[nH]1 [Example 42, (1S)-1-[1,1′-biphenyl]-3-yl-2,2-dimethylpropyl(1S)-1-[oxo(1H-pyrazol-5-ylamino)acetyl]pentylcarbamate] | 0.01 to 1 nM
CCCC[C@H](NC(=O)O[C@@H](c1nc2c(OCC)ccc(OCC)c2n1C)C(C)(C)C)C(=O)C(=O)Nc1ccn[nH]1 [Example 43] | 100 to 10000 nM
CCCC[C@H](NC(=O)O[C@H](Cn1ccc(-c2ccc(C(F)(F)F)cc2)n1)C(C)(C)C)C(=O)C(=O)Nc1nccs1 [Example 46, (1S)-2,2-dimethyl-1-({3-[4-(trifluoromethyl)phenyl]-1H-pyrazol-1-yl}methyl)propyl(1S)-1-[oxo(1,3-thiazol-2-ylamino)acetyl]pentylcarbamate] | 0.01 to 1 nM
CCCC[C@H](NC(=O)O[C@H](Cn1cnc(-c2cc(C(F)(F)F)cc(C(F)(F)F)c2)c1)C(C)(C)C)C(=O)C(=O)Nc1ccn[nH]1 [Example 50, (1S)-1-({4-[3,5-bis(trifluoromethyl)phenyl]-1H-imidazol-1-yl}methyl)-2,2-dimethylpropyl(1S)-1-[oxo(1H-pyrazol-5-ylamino)acetyl]pentylcarbamate] | 0.01 to 1 nM
CCCC[C@H](NC(=O)O[C@H](Cn1cnc(-c2ccc(C(F)(F)F)cc2)c1)C(C)(C)C)C(=O)C(=O)Nc1nccs1 [Example 51, (1S)-2,2-dimethyl-1-({4-[4-(trifluoromethyl)phenyl]-1H-imidazol-1-yl}methyl)propyl(1S)-1-[oxo(1,3-thiazol-2-ylamino)acetyl]pentylcarbamate] | 1 to 100 nM
CCCC[C@H](NC(=O)O[C@H](c1nnc(-c2cccnc2)o1)C(C)(C)C)C(=O)C(=O)Nc1ccn[nH]1 [Example 52, (1S)-2,2-dimethyl-1-[5-(3-pyridinyl)-1,3,4-oxadiazol-2-yl]propyl(1S)-1-[oxo(1H-pyrazol-5-ylamino)acetyl]pentylcarbamate] | 0.01 to 1 nM
CCCC[C@H](NC(=O)O[C@@H](c1nnc(-c2cccnc2)o1)C(C)(C)C)C(=O)C(=O)Nc1ccn[nH]1 [Example 53, (1R)-2,2-dimethyl-1-[5-(3-pyridinyl)-1,3,4-oxadiazol-2-yl]propyl(1S)-1-[oxo(1H-pyrazol-5-ylamino)acetyl]pentylcarbamate] | 1 to 100 nM
CCCC[C@H](NC(=O)O[C@H](c1nnc(-c2ccncc2)o1)C(C)(C)C)C(=O)C(=O)Nc1ccn[nH]1 [Example 54, (1S)-2,2-dimethyl-1-[5-(4-pyridinyl)-1,3,4-oxadiazol-2-yl]propyl(1S)-1-[oxo(1H-pyrazol-5-ylamino)acetyl]pentylcarbamate] | 0.01 to 1 nM
CCCC[C@H](NC(=O)O[C@@H](c1nnc(-c2ccncc2)o1)C(C)(C)C)C(=O)C(=O)Nc1ccn[nH]1 [Example 55, (1R)-2,2-dimethyl-1-[5-(4-pyridinyl)-1,3,4-oxadiazol-2-yl]propyl (1S)-1-[oxo(1H-pyrazol-5-ylamino)acetyl]pentylcarbamate] | 100 to 10000 nM
